Experimental data: the NIST ThermoML archive (doi:10.1021/je5010214)
± gives the expanded uncertainty stated by the source.

Conditions: Liquid, Vibrating tube method

CCCCO [butan-1-ol]
Conditions | mass density [kg/m3]
283.15 K, 267.6 kPa | 817.937 ± 0.81
283.15 K, 550.8 kPa | 818.14 ± 0.81
283.15 K, 878.6 kPa | 818.388 ± 0.81
283.15 K, 991.3 kPa | 818.415 ± 0.81
283.15 K, 2020.2 kPa | 819.134 ± 0.81
283.15 K, 2914.8 kPa | 819.722 ± 0.81
283.15 K, 4946.5 kPa | 821.145 ± 0.81
283.15 K, 7034.8 kPa | 822.538 ± 0.81
283.15 K, 9021.6 kPa | 823.807 ± 0.81
283.15 K, 9991.9 kPa | 824.485 ± 0.81
283.15 K, 11959 kPa | 825.705 ± 0.82
283.15 K, 15011 kPa | 827.609 ± 0.82
283.15 K, 18047 kPa | 829.455 ± 0.82
283.15 K, 20045 kPa | 830.642 ± 0.83
283.15 K, 22057 kPa | 831.928 ± 0.83
283.15 K, 25044 kPa | 833.615 ± 0.83
283.15 K, 28046 kPa | 835.368 ± 0.84
283.15 K, 30052 kPa | 836.501 ± 0.84
283.15 K, 32970 kPa | 838.092 ± 0.85
283.15 K, 32971 kPa | 838.117 ± 0.85
283.15 K, 34017 kPa | 838.557 ± 0.85
283.15 K, 34960 kPa | 839.141 ± 0.85
283.15 K, 37943 kPa | 840.737 ± 0.85
283.15 K, 40004 kPa | 841.811 ± 0.86
283.15 K, 42058 kPa | 842.896 ± 0.86
283.15 K, 44940 kPa | 844.325 ± 0.87
283.15 K, 48022 kPa | 845.954 ± 0.87
283.15 K, 49996 kPa | 846.902 ± 0.88
283.15 K, 51982 kPa | 847.942 ± 0.88
283.15 K, 54965 kPa | 849.358 ± 0.88
283.15 K, 57949 kPa | 850.826 ± 0.89
283.15 K, 59996 kPa | 851.847 ± 0.89
283.15 K, 62025 kPa | 852.74 ± 0.9
283.15 K, 64998 kPa | 854.215 ± 0.9
283.16 K, 101.2 kPa | 817.825 ± 0.81
283.16 K, 65971 kPa | 854.69 ± 0.9
288.15 K, 78.5 kPa | 813.612 ± 0.81
288.15 K, 391.3 kPa | 813.84 ± 0.81
288.15 K, 554.4 kPa | 813.953 ± 0.81
288.15 K, 882.7 kPa | 814.204 ± 0.81
288.15 K, 989.1 kPa | 814.282 ± 0.81
288.15 K, 2057.5 kPa | 815.033 ± 0.81
288.15 K, 2917.8 kPa | 815.651 ± 0.81
288.15 K, 5041.4 kPa | 817.16 ± 0.81
288.15 K, 7088.8 kPa | 818.541 ± 0.81
288.15 K, 9018.6 kPa | 819.847 ± 0.81
288.15 K, 10040 kPa | 820.583 ± 0.81
288.15 K, 12072 kPa | 821.91 ± 0.82
288.15 K, 15001 kPa | 823.877 ± 0.82
288.15 K, 17968 kPa | 825.72 ± 0.82
288.15 K, 20068 kPa | 826.976 ± 0.83
288.15 K, 20693 kPa | 827.38 ± 0.83
288.15 K, 22020 kPa | 828.211 ± 0.83
288.15 K, 25002 kPa | 829.984 ± 0.83
288.15 K, 28026 kPa | 831.832 ± 0.84
288.15 K, 30035 kPa | 832.896 ± 0.84
288.15 K, 32084 kPa | 834.074 ± 0.85
288.15 K, 33050 kPa | 834.714 ± 0.85
288.15 K, 34036 kPa | 835.152 ± 0.85
288.15 K, 35077 kPa | 835.674 ± 0.85
288.15 K, 37993 kPa | 837.311 ± 0.86
288.15 K, 40041 kPa | 838.449 ± 0.86
288.15 K, 42023 kPa | 839.459 ± 0.86
288.15 K, 44979 kPa | 841.064 ± 0.87
288.15 K, 48045 kPa | 842.655 ± 0.87
288.15 K, 50068 kPa | 843.734 ± 0.88
288.15 K, 52032 kPa | 844.696 ± 0.88
288.15 K, 55077 kPa | 846.251 ± 0.89
288.15 K, 58004 kPa | 847.666 ± 0.89
288.15 K, 59988 kPa | 848.618 ± 0.9
288.15 K, 61974 kPa | 849.542 ± 0.9
288.15 K, 64942 kPa | 850.93 ± 0.91
288.15 K, 66025 kPa | 851.488 ± 0.91
293.15 K, 91.1 kPa | 810.528 ± 0.81
293.15 K, 825.1 kPa | 811.053 ± 0.81
293.15 K, 1971.7 kPa | 811.916 ± 0.81
293.15 K, 3060.6 kPa | 812.72 ± 0.81
293.15 K, 5011 kPa | 814.074 ± 0.81
293.15 K, 9042.1 kPa | 816.992 ± 0.81
293.15 K, 10036 kPa | 817.626 ± 0.82
293.15 K, 11947 kPa | 818.963 ± 0.82
293.15 K, 14941 kPa | 820.924 ± 0.82
293.15 K, 21987 kPa | 825.417 ± 0.83
293.15 K, 27986 kPa | 829.06 ± 0.84
293.15 K, 28066 kPa | 829.163 ± 0.84
293.15 K, 33151 kPa | 832.036 ± 0.85
293.15 K, 34099 kPa | 832.526 ± 0.85
293.15 K, 35000 kPa | 833.078 ± 0.85
293.15 K, 40081 kPa | 835.959 ± 0.86
293.15 K, 42099 kPa | 837.008 ± 0.86
293.15 K, 45068 kPa | 838.658 ± 0.87
293.15 K, 54966 kPa | 843.81 ± 0.89
293.15 K, 58072 kPa | 845.282 ± 0.9
293.15 K, 66045 kPa | 849.224 ± 0.91
293.16 K, 305.2 kPa | 810.686 ± 0.81
293.16 K, 476.4 kPa | 810.81 ± 0.81
293.16 K, 1045.2 kPa | 811.221 ± 0.81
293.16 K, 7096.8 kPa | 815.616 ± 0.81
293.16 K, 17889 kPa | 822.832 ± 0.83
293.16 K, 19992 kPa | 824.147 ± 0.83
293.16 K, 24983 kPa | 827.251 ± 0.84
293.16 K, 29976 kPa | 830.11 ± 0.84
293.16 K, 32232 kPa | 831.521 ± 0.85
293.16 K, 38027 kPa | 834.783 ± 0.86
293.16 K, 48022 kPa | 840.192 ± 0.88
293.16 K, 50085 kPa | 841.31 ± 0.88
293.16 K, 52032 kPa | 842.308 ± 0.88
293.16 K, 60018 kPa | 846.257 ± 0.9
293.16 K, 61962 kPa | 847.209 ± 0.9
293.16 K, 64991 kPa | 848.649 ± 0.91
298.15 K, 98.1 kPa | 806.282 ± 0.81
298.15 K, 305.4 kPa | 806.45 ± 0.81
298.15 K, 854.5 kPa | 806.874 ± 0.81
298.15 K, 1980.9 kPa | 807.747 ± 0.81
298.15 K, 3167.8 kPa | 808.637 ± 0.81
298.15 K, 5067.6 kPa | 810.04 ± 0.81
298.15 K, 7065.3 kPa | 811.55 ± 0.81
298.15 K, 10107 kPa | 813.67 ± 0.82
298.15 K, 20128 kPa | 820.445 ± 0.83
298.15 K, 22004 kPa | 821.641 ± 0.83
298.15 K, 25081 kPa | 823.55 ± 0.84
298.15 K, 33113 kPa | 828.365 ± 0.85
298.15 K, 33924 kPa | 828.845 ± 0.85
298.15 K, 38097 kPa | 831.213 ± 0.86
298.15 K, 40161 kPa | 832.357 ± 0.86
298.15 K, 42029 kPa | 833.462 ± 0.87
298.15 K, 42359 kPa | 833.614 ± 0.87
298.15 K, 45021 kPa | 835.052 ± 0.87
298.15 K, 48107 kPa | 836.745 ± 0.88
298.15 K, 50068 kPa | 837.797 ± 0.88
298.15 K, 55016 kPa | 840.375 ± 0.89
298.15 K, 57931 kPa | 841.819 ± 0.9
298.15 K, 59914 kPa | 842.826 ± 0.9
298.15 K, 62036 kPa | 843.934 ± 0.91
298.15 K, 65018 kPa | 845.412 ± 0.91
298.16 K, 493.7 kPa | 806.599 ± 0.81
298.16 K, 1012.6 kPa | 806.992 ± 0.81
298.16 K, 9120.9 kPa | 813.012 ± 0.81
298.16 K, 11970 kPa | 814.957 ± 0.82
298.16 K, 15220 kPa | 817.234 ± 0.82
298.16 K, 17984 kPa | 819.076 ± 0.83
298.16 K, 28040 kPa | 825.42 ± 0.84
298.16 K, 30089 kPa | 826.686 ± 0.85
298.16 K, 32030 kPa | 827.814 ± 0.85
298.16 K, 35217 kPa | 829.575 ± 0.85
298.16 K, 52020 kPa | 838.835 ± 0.89
298.16 K, 66118 kPa | 845.919 ± 0.92
303.15 K, 304.1 kPa | 802.278 ± 0.81
303.15 K, 498.9 kPa | 802.435 ± 0.81
303.15 K, 900.6 kPa | 802.733 ± 0.81
303.15 K, 979.1 kPa | 802.787 ± 0.81
303.15 K, 1977.6 kPa | 803.554 ± 0.81
303.15 K, 4930.4 kPa | 805.792 ± 0.81
303.15 K, 11975 kPa | 810.901 ± 0.82
303.15 K, 15044 kPa | 812.956 ± 0.82
303.15 K, 19974 kPa | 816.207 ± 0.83
